Source: the kinase profiling compilation of Christmann-Franck et al. (2016)

molecular target: MAPKAPK5 (human) (UniProt Q8IW41); test: radiometric filter-binding kinase assay, Kinase HotSpot; settings: compound 0.5 µM; ATP 10 µM

Point of comparison: `CCCNC(=O)Nc1ccc(Oc2ncnc3cc(OC)c(OC)cc23)cc1Cl`, residual activity 92.2%. Against it:
- CCN1/C(=C/C(C)=O)Sc2ccc(OC)cc21 — higher, 112%
- COc1cc2ncnc(Nc3ccc(F)c(Cl)c3)c2cc1OCCCN1CCOCC1 — higher, 92.7%
- C#Cc1cccc(Nc2ncnc3cc(OCCOC)c(OCCOC)cc23)c1 — lower, 89.7%
- Nc1nc(Nc2ccc(S(N)(=O)=O)cc2)nn1C(=O)c1c(F)cccc1F — lower, 80.3%

molecular target: MARK1 (human) (UniProt Q9P0L2); test: as above; settings: compound 0.5 µM; ATP 10 µM

Point of comparison: `COc1cc2ncnc(Nc3ccc(F)c(Cl)c3)c2cc1OCCCN1CCOCC1`, residual activity 116%. Against it:
- CCN1/C(=C/C(C)=O)Sc2ccc(OC)cc21 — lower, 91%
- C#Cc1cccc(Nc2ncnc3cc(OCCOC)c(OCCOC)cc23)c1 — higher, 130%
- Nc1nc(Nc2ccc(S(N)(=O)=O)cc2)nn1C(=O)c1c(F)cccc1F — lower, 64.1%
- CCCNC(=O)Nc1ccc(Oc2ncnc3cc(OC)c(OC)cc23)cc1Cl — lower, 97.6%

molecular target: GRK5 (human) (UniProt P34947); test: as above; settings: compound 0.5 µM; ATP 10 µM

Point of comparison: `C#Cc1cccc(Nc2ncnc3cc(OCCOC)c(OCCOC)cc23)c1`, residual activity 100%. Against it:
- CCN1/C(=C/C(C)=O)Sc2ccc(OC)cc21 — higher, 108%
- COc1cc2ncnc(Nc3ccc(F)c(Cl)c3)c2cc1OCCCN1CCOCC1 — lower, 94.9%
- Nc1nc(Nc2ccc(S(N)(=O)=O)cc2)nn1C(=O)c1c(F)cccc1F — lower, 85.9%
- CCCNC(=O)Nc1ccc(Oc2ncnc3cc(OC)c(OC)cc23)cc1Cl — higher, 105%

molecular target: MAPK13 (human) (UniProt O15264); test: as above; settings: compound 0.5 µM; ATP 10 µM
Sequence (O15264 whole entry, looked up): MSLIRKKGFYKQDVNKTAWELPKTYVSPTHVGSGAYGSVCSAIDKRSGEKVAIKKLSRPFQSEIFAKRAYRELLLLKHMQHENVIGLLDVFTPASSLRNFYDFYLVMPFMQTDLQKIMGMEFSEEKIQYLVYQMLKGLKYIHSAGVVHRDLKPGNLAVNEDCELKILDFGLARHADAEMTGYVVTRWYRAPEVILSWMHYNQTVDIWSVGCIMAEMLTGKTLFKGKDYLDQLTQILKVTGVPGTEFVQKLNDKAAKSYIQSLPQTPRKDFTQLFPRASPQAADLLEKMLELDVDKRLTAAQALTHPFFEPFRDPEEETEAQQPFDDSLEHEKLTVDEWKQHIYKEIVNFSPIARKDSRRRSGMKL

Point of comparison: `C#Cc1cccc(Nc2ncnc3cc(OCCOC)c(OCCOC)cc23)c1`, residual activity 95%. Against it:
- CCN1/C(=C/C(C)=O)Sc2ccc(OC)cc21 — higher, 105%
- COc1cc2ncnc(Nc3ccc(F)c(Cl)c3)c2cc1OCCCN1CCOCC1 — lower, 94.7%
- Nc1nc(Nc2ccc(S(N)(=O)=O)cc2)nn1C(=O)c1c(F)cccc1F — lower, 94.8%
- CCCNC(=O)Nc1ccc(Oc2ncnc3cc(OC)c(OC)cc23)cc1Cl — higher, 100%

molecular target: TYRO3 (human) (UniProt Q06418); test: as above; settings: compound 0.5 µM; ATP 10 µM

Point of comparison: `CCCNC(=O)Nc1ccc(Oc2ncnc3cc(OC)c(OC)cc23)cc1Cl`, residual activity 102%. Against it:
- COc1cc2ncnc(Nc3ccc(F)c(Cl)c3)c2cc1OCCCN1CCOCC1 — lower, 94.9%
- Nc1nc(Nc2ccc(S(N)(=O)=O)cc2)nn1C(=O)c1c(F)cccc1F — lower, 98.6%

molecular target: MAPK11 (human) (UniProt Q15759); test: as above; settings: compound 0.5 µM; ATP 10 µM
Sequence (Q15759 whole entry, looked up): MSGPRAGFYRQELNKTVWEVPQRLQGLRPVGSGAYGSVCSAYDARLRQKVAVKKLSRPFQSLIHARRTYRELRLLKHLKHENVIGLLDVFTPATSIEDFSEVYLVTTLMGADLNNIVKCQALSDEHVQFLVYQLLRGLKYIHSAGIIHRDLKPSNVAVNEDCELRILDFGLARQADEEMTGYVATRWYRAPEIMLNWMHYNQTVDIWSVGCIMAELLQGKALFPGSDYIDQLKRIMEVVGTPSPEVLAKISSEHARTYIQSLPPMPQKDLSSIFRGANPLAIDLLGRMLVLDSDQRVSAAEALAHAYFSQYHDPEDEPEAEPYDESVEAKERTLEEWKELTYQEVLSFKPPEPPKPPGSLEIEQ

Point of comparison: `C#Cc1cccc(Nc2ncnc3cc(OCCOC)c(OCCOC)cc23)c1`, residual activity 97.8%. Against it:
- CCN1/C(=C/C(C)=O)Sc2ccc(OC)cc21 — lower, 84.5%
- COc1cc2ncnc(Nc3ccc(F)c(Cl)c3)c2cc1OCCCN1CCOCC1 — lower, 95.1%
- Nc1nc(Nc2ccc(S(N)(=O)=O)cc2)nn1C(=O)c1c(F)cccc1F — lower, 94%
- CCCNC(=O)Nc1ccc(Oc2ncnc3cc(OC)c(OC)cc23)cc1Cl — lower, 88.5%

molecular target: ALK (human) (UniProt Q9UM73); test: as above; settings: compound 0.5 µM; ATP 10 µM

Point of comparison: `COc1cc2ncnc(Nc3ccc(F)c(Cl)c3)c2cc1OCCCN1CCOCC1`, residual activity 98.8%. Against it:
- CCN1/C(=C/C(C)=O)Sc2ccc(OC)cc21 — higher, 105%
- Nc1nc(Nc2ccc(S(N)(=O)=O)cc2)nn1C(=O)c1c(F)cccc1F — lower, 90.1%

molecular target: PIM3 (human) (UniProt Q86V86); test: as above; settings: compound 0.5 µM; ATP 10 µM

Point of comparison: `COc1cc2ncnc(Nc3ccc(F)c(Cl)c3)c2cc1OCCCN1CCOCC1`, residual activity 74.6%. Against it:
- CCN1/C(=C/C(C)=O)Sc2ccc(OC)cc21 — lower, 47.4%
- C#Cc1cccc(Nc2ncnc3cc(OCCOC)c(OCCOC)cc23)c1 — higher, 81.4%
- Nc1nc(Nc2ccc(S(N)(=O)=O)cc2)nn1C(=O)c1c(F)cccc1F — higher, 102%
- CCCNC(=O)Nc1ccc(Oc2ncnc3cc(OC)c(OC)cc23)cc1Cl — higher, 81.3%

molecular target: SGK2 (human) (UniProt Q9HBY8); test: as above; settings: compound 0.5 µM; ATP 10 µM
Sequence (Q9HBY8 whole entry, looked up): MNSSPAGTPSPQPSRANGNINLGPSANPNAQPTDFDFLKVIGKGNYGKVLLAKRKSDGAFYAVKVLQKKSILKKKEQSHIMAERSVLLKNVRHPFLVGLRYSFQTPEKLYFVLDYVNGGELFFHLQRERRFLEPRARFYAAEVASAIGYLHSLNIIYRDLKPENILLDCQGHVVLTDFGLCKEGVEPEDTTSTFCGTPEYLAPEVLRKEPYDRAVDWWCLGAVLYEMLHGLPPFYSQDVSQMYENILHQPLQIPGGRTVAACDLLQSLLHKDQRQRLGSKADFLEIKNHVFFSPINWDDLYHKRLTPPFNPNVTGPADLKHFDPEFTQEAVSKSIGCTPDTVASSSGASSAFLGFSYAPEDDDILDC

Point of comparison: `CCCNC(=O)Nc1ccc(Oc2ncnc3cc(OC)c(OC)cc23)cc1Cl`, residual activity 97.1%. Against it:
- CCN1/C(=C/C(C)=O)Sc2ccc(OC)cc21 — lower, 93.7%
- COc1cc2ncnc(Nc3ccc(F)c(Cl)c3)c2cc1OCCCN1CCOCC1 — higher, 117%
- C#Cc1cccc(Nc2ncnc3cc(OCCOC)c(OCCOC)cc23)c1 — higher, 107%
- Nc1nc(Nc2ccc(S(N)(=O)=O)cc2)nn1C(=O)c1c(F)cccc1F — higher, 106%

molecular target: MARK2 (human) (UniProt Q7KZI7); test: as above; settings: compound 0.5 µM; ATP 10 µM

Point of comparison: `C#Cc1cccc(Nc2ncnc3cc(OCCOC)c(OCCOC)cc23)c1`, residual activity 129%. Against it:
- CCN1/C(=C/C(C)=O)Sc2ccc(OC)cc21 — lower, 89.5%
- COc1cc2ncnc(Nc3ccc(F)c(Cl)c3)c2cc1OCCCN1CCOCC1 — lower, 119%
- CCCNC(=O)Nc1ccc(Oc2ncnc3cc(OC)c(OC)cc23)cc1Cl — lower, 96.2%

molecular target: FGR (human) (UniProt P09769); test: as above; settings: compound 0.5 µM; ATP 10 µM

Point of comparison: `CCCNC(=O)Nc1ccc(Oc2ncnc3cc(OC)c(OC)cc23)cc1Cl`, residual activity 70.2%. Against it:
- CCN1/C(=C/C(C)=O)Sc2ccc(OC)cc21 — higher, 91.7%
- COc1cc2ncnc(Nc3ccc(F)c(Cl)c3)c2cc1OCCCN1CCOCC1 — lower, 70.1%
- Nc1nc(Nc2ccc(S(N)(=O)=O)cc2)nn1C(=O)c1c(F)cccc1F — lower, 63.5%

molecular target: DAPK1 (human) (UniProt P53355); test: as above; settings: compound 0.5 µM; ATP 10 µM

Point of comparison: `Nc1nc(Nc2ccc(S(N)(=O)=O)cc2)nn1C(=O)c1c(F)cccc1F`, residual activity 93.8%. Against it:
- CCN1/C(=C/C(C)=O)Sc2ccc(OC)cc21 — higher, 109%
- COc1cc2ncnc(Nc3ccc(F)c(Cl)c3)c2cc1OCCCN1CCOCC1 — higher, 109%
- C#Cc1cccc(Nc2ncnc3cc(OCCOC)c(OCCOC)cc23)c1 — higher, 103%
- CCCNC(=O)Nc1ccc(Oc2ncnc3cc(OC)c(OC)cc23)cc1Cl — higher, 104%

molecular target: YES1 (human) (UniProt P07947); test: as above; settings: compound 0.5 µM; ATP 10 µM
Sequence (P07947 whole entry, looked up): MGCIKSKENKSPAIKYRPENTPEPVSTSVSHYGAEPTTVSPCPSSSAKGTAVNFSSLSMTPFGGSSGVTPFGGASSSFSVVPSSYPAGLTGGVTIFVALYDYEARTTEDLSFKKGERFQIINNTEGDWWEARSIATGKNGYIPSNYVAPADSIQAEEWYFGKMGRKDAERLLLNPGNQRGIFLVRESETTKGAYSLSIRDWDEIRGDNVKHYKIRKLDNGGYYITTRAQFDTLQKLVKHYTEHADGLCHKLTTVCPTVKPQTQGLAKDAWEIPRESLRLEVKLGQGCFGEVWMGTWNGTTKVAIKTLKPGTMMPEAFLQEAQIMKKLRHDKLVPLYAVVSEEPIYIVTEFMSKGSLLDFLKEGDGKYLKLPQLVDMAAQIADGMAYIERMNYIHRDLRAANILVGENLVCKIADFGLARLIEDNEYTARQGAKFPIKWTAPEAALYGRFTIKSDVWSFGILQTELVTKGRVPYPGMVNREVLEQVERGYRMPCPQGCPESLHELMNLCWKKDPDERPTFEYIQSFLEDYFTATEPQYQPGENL

Point of comparison: `Nc1nc(Nc2ccc(S(N)(=O)=O)cc2)nn1C(=O)c1c(F)cccc1F`, residual activity 50.6%. Against it:
- CCN1/C(=C/C(C)=O)Sc2ccc(OC)cc21 — higher, 91.8%
- COc1cc2ncnc(Nc3ccc(F)c(Cl)c3)c2cc1OCCCN1CCOCC1 — higher, 74.4%
- CCCNC(=O)Nc1ccc(Oc2ncnc3cc(OC)c(OC)cc23)cc1Cl — higher, 82.1%

molecular target: PIM1 (human) (UniProt P11309); test: as above; settings: compound 0.5 µM; ATP 10 µM
Sequence (P11309 whole entry, looked up): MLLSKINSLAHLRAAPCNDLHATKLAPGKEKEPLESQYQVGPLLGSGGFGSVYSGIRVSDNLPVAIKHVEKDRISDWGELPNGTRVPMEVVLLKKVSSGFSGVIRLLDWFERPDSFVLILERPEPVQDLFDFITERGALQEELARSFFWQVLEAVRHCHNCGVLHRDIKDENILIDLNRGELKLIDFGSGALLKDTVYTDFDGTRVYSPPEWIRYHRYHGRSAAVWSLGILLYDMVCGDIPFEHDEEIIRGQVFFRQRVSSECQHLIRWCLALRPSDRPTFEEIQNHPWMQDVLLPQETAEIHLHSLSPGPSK

Point of comparison: `CCCNC(=O)Nc1ccc(Oc2ncnc3cc(OC)c(OC)cc23)cc1Cl`, residual activity 102%. Against it:
- CCN1/C(=C/C(C)=O)Sc2ccc(OC)cc21 — lower, 17.9%
- COc1cc2ncnc(Nc3ccc(F)c(Cl)c3)c2cc1OCCCN1CCOCC1 — lower, 86.4%
- C#Cc1cccc(Nc2ncnc3cc(OCCOC)c(OCCOC)cc23)c1 — lower, 97%
- Nc1nc(Nc2ccc(S(N)(=O)=O)cc2)nn1C(=O)c1c(F)cccc1F — lower, 97.6%

molecular target: IKBKE (human) (UniProt Q14164); test: as above; settings: compound 0.5 µM; ATP 10 µM
Sequence (Q14164 whole entry, looked up): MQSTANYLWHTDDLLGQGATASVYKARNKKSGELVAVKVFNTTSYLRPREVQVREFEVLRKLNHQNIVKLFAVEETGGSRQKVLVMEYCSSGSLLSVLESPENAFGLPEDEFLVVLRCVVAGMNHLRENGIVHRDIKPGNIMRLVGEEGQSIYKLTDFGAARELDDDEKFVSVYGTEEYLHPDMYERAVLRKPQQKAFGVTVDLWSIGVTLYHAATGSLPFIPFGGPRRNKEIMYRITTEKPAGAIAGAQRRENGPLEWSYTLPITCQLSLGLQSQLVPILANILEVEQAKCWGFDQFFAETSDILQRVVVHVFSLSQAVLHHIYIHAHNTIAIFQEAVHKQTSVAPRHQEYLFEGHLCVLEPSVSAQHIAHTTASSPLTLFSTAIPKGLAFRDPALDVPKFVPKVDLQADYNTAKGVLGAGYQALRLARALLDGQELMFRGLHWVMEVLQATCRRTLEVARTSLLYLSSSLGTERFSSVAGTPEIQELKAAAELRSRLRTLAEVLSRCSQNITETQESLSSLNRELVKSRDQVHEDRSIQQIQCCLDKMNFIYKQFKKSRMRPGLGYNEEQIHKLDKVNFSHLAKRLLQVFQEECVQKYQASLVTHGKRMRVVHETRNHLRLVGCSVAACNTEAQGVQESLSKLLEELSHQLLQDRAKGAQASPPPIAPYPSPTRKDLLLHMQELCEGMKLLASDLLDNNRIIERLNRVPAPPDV

Point of comparison: `CCCNC(=O)Nc1ccc(Oc2ncnc3cc(OC)c(OC)cc23)cc1Cl`, residual activity 93.5%. Against it:
- CCN1/C(=C/C(C)=O)Sc2ccc(OC)cc21 — higher, 99%
- COc1cc2ncnc(Nc3ccc(F)c(Cl)c3)c2cc1OCCCN1CCOCC1 — lower, 89.9%
- Nc1nc(Nc2ccc(S(N)(=O)=O)cc2)nn1C(=O)c1c(F)cccc1F — higher, 95.9%

molecular target: JAK1 JH1 catalytic (human) (UniProt P23458); test: as above; settings: compound 0.5 µM; ATP 10 µM
Sequence (P23458 whole entry, looked up): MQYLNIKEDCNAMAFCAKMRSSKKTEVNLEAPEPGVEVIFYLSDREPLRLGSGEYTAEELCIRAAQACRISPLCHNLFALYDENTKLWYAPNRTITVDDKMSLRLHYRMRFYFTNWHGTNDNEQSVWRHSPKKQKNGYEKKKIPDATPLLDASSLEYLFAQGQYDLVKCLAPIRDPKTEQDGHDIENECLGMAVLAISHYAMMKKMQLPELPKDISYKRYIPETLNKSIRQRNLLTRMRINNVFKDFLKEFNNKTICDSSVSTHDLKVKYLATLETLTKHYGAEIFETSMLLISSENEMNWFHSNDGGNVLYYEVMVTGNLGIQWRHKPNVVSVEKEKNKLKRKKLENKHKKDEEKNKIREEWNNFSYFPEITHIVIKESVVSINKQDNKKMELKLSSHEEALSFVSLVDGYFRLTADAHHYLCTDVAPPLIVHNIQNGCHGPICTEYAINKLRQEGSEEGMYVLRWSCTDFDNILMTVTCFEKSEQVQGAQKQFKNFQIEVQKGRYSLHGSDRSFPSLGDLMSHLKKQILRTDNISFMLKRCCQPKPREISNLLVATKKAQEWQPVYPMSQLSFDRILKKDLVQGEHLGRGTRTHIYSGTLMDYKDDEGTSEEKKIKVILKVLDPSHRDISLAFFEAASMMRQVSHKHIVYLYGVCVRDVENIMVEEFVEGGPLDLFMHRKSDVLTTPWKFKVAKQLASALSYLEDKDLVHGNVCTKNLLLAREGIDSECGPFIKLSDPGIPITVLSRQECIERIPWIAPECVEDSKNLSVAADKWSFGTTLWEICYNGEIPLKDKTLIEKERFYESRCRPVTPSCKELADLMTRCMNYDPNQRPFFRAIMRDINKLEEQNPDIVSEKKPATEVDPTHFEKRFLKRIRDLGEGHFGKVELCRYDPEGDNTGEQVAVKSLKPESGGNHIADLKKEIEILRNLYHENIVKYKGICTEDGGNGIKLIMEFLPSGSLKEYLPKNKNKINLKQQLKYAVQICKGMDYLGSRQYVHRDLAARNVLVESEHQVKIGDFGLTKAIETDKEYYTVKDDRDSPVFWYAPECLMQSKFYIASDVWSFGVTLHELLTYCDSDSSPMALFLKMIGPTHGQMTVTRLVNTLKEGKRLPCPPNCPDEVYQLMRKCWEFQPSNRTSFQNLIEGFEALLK

Point of comparison: `COc1cc2ncnc(Nc3ccc(F)c(Cl)c3)c2cc1OCCCN1CCOCC1`, residual activity 102%. Against it:
- CCN1/C(=C/C(C)=O)Sc2ccc(OC)cc21 — lower, 98.9%
- C#Cc1cccc(Nc2ncnc3cc(OCCOC)c(OCCOC)cc23)c1 — lower, 91.2%
- Nc1nc(Nc2ccc(S(N)(=O)=O)cc2)nn1C(=O)c1c(F)cccc1F — lower, 5.19%
- CCCNC(=O)Nc1ccc(Oc2ncnc3cc(OC)c(OC)cc23)cc1Cl — lower, 99.2%

molecular target: PAK4 (human) (UniProt O96013); test: as above; settings: compound 0.5 µM; ATP 10 µM

Point of comparison: `CCN1/C(=C/C(C)=O)Sc2ccc(OC)cc21`, residual activity 108%. Against it:
- COc1cc2ncnc(Nc3ccc(F)c(Cl)c3)c2cc1OCCCN1CCOCC1 — lower, 90.2%
- C#Cc1cccc(Nc2ncnc3cc(OCCOC)c(OCCOC)cc23)c1 — lower, 91.8%
- Nc1nc(Nc2ccc(S(N)(=O)=O)cc2)nn1C(=O)c1c(F)cccc1F — lower, 90%
- CCCNC(=O)Nc1ccc(Oc2ncnc3cc(OC)c(OC)cc23)cc1Cl — lower, 95.7%

molecular target: PRKCD (human) (UniProt Q05655); test: as above; settings: compound 0.5 µM; ATP 10 µM

Point of comparison: `COc1cc2ncnc(Nc3ccc(F)c(Cl)c3)c2cc1OCCCN1CCOCC1`, residual activity 106%. Against it:
- CCN1/C(=C/C(C)=O)Sc2ccc(OC)cc21 — lower, 88.2%
- C#Cc1cccc(Nc2ncnc3cc(OCCOC)c(OCCOC)cc23)c1 — lower, 104%
- Nc1nc(Nc2ccc(S(N)(=O)=O)cc2)nn1C(=O)c1c(F)cccc1F — lower, 81.2%
- CCCNC(=O)Nc1ccc(Oc2ncnc3cc(OC)c(OC)cc23)cc1Cl — lower, 90.1%

molecular target: PRKG2 (human) (UniProt Q13237); test: as above; settings: compound 0.5 µM; ATP 10 µM

Point of comparison: `Nc1nc(Nc2ccc(S(N)(=O)=O)cc2)nn1C(=O)c1c(F)cccc1F`, residual activity 92.2%. Against it:
- CCN1/C(=C/C(C)=O)Sc2ccc(OC)cc21 — lower, 65.8%
- C#Cc1cccc(Nc2ncnc3cc(OCCOC)c(OCCOC)cc23)c1 — higher, 107%
- CCCNC(=O)Nc1ccc(Oc2ncnc3cc(OC)c(OC)cc23)cc1Cl — higher, 97%

molecular target: GSG2 (human) (UniProt Q8TF76); test: as above; settings: compound 0.5 µM; ATP 10 µM

Point of comparison: `Nc1nc(Nc2ccc(S(N)(=O)=O)cc2)nn1C(=O)c1c(F)cccc1F`, residual activity 107%. Against it:
- CCN1/C(=C/C(C)=O)Sc2ccc(OC)cc21 — lower, 25%
- COc1cc2ncnc(Nc3ccc(F)c(Cl)c3)c2cc1OCCCN1CCOCC1 — lower, 84%
- C#Cc1cccc(Nc2ncnc3cc(OCCOC)c(OCCOC)cc23)c1 — lower, 80.9%
- CCCNC(=O)Nc1ccc(Oc2ncnc3cc(OC)c(OC)cc23)cc1Cl — lower, 99.1%

molecular target: MAP3K7 TAB1 (human) (UniProt O43318+Q15750); test: as above; settings: compound 0.5 µM; ATP 10 µM
Sequence (O43318 whole entry, looked up): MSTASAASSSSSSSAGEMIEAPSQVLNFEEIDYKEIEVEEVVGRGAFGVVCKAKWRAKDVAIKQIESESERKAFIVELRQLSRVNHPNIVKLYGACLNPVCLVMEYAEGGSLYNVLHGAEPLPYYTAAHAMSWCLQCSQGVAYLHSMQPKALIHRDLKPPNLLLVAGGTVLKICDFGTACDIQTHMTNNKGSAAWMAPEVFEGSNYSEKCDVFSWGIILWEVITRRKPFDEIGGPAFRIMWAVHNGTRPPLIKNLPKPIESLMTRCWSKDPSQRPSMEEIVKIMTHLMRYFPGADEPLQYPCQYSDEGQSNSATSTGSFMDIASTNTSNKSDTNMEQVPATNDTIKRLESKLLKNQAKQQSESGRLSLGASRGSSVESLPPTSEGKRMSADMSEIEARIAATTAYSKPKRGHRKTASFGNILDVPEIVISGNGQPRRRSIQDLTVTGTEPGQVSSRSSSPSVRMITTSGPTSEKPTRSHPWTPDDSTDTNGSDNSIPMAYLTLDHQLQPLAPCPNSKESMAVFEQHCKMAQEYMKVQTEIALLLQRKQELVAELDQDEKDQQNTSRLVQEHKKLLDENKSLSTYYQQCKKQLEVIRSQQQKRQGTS
Sequence (Q15750 whole entry, looked up): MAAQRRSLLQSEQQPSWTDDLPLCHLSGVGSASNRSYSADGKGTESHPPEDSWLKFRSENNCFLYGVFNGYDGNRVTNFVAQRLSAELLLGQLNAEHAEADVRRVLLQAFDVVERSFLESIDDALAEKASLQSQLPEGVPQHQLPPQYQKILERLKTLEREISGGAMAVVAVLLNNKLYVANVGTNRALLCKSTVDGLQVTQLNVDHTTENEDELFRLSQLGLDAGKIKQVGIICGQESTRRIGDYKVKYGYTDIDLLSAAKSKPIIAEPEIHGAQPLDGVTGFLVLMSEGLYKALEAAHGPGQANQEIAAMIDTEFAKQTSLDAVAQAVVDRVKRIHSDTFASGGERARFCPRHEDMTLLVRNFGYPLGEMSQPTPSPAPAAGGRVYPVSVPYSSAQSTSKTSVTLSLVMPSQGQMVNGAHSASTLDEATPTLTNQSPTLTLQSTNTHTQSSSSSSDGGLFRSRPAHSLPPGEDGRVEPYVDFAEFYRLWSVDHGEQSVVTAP

Point of comparison: `CCN1/C(=C/C(C)=O)Sc2ccc(OC)cc21`, residual activity 99.9%. Against it:
- COc1cc2ncnc(Nc3ccc(F)c(Cl)c3)c2cc1OCCCN1CCOCC1 — lower, 91.3%
- C#Cc1cccc(Nc2ncnc3cc(OCCOC)c(OCCOC)cc23)c1 — lower, 88.8%
- Nc1nc(Nc2ccc(S(N)(=O)=O)cc2)nn1C(=O)c1c(F)cccc1F — lower, 77.4%
- CCCNC(=O)Nc1ccc(Oc2ncnc3cc(OC)c(OC)cc23)cc1Cl — higher, 103%
